System: Salmonella TA1538 and TA98
Experiment: Ames test (preincubation method, metabolically activated, +x9mix)
Conditions: 0 to 5 mg; for Increase (times): maximum increase in the colony of the sample as compared with the solvent control: acetone as solvent control; for Toxicity (mutagenicity): judged against solvent control
Description: Ames test was conducted as an identical amest test with respect to representative examples of the intermediate of the present invention and control dyes having the same structure as that of the intermediate of the present invention, except that the ring was a pyridine ring instead of the phenyl ring.
The ames test was conducted in such a state that Salmonella TA1538 and TA98 were metabolically activated by a preincubation method (+x9mix). The dye was used in contentrations in five grades in the range of from 0 to 5 mg. Acetone was used as the solvent control. The toxicity was judged based on the maximum increase in the colony of the sample as compared with the solvent control. Specifically, when the increase in the reversion colony was twice or more as compared with that in the case of the control, the mutagenicity was judged as positive, while when the increase in the reversion colony was less than twice as compared with that in the case of the control, the mutagenicity was judged as negative.

CCN(CC)c1ccc(N=Nc2cn(-c3ccccc3)nc2C)cn1
Increase (times): maximum increase in the colony of the sample as compared with the solvent control: 1.5 times | Toxicity (mutagenicity): neg- ative

CCN(CC)c1ccc(N=Nc2cn(-c3ccccc3)nc2C)cc1
Increase (times): maximum increase in the colony of the sample as compared with the solvent control: 2.2 times | Toxicity (mutagenicity): pos- itive

CCN(CC)c1ccc(N=C2C=C(NC(C)=O)C(=O)C(Cl)=C2C)cc1
Increase (times): maximum increase in the colony of the sample as compared with the solvent control: 1.7 times | Toxicity (mutagenicity): neg- ative

CCN(CC)c1ccc(N=C2C=C(NC(C)=O)C(=O)C(Cl)=C2C)cn1
Increase (times): maximum increase in the colony of the sample as compared with the solvent control: 1.5 times | Toxicity (mutagenicity): neg- ative

— patent US5374601A, “Thermal transfer sheet” (Dai Nippon Printing Co., Ltd., priority 1991, dated 1994)
